Source: patent publication US20200296959A1, “DISINFECTION AND/OR STERILIZATION OF AGRICULTURAL CROPS” (priority 2019, published 2020)

System: Bacillus atrophaeus spore strips
Assay: Microbial decontamination barrel: sterilization of Steritest biological indicator spore strips
Method: Barrel Setup: All cycles were performed using a 48.8 gallon steel barrel with an airtight lid sealed with a rubber gasket.
Barrels were fitted with an SEC Sensor to monitor EO concentration throughout the cycle
The unit utilizes AN 7916 Anprolene gas release ampoules, which contain approximately 17.6 g of EO. The number of ampoules can be adjusted according to load weight.
Barrels were fitted with an observation chamber containing a chemical integrator, referred to a dosimeter. This allows sterilization progress to be monitored in real time with no disruption to the cycle.
An external recirculating abator cartridge was attached to the lid of the barrel to neutralize EO when the cycle is complete.
Humidichips, a Madgetech Datalogger, and a Steritest biological indicator including a Dosimeter and a Bacillus atrophaeus spore strip, were placed in the bottom of the barrel. An AN 7916 EO 17.6 g ampule was activated then placed in the bottom of the barrel.
Further, paper represents a reasonable proxy for agricultural materials such as hemp and marijuana, as all of these materials are all cellulosic materials.
In this example, the barrel was loaded with 150 lbs of paper. Humidichips, a Madgetech Datalogger, and a Steritest were placed in the middle of the load. The Barrel was filled to the top with cloth materials (which are also cellulosic materials). […]

SMILES: C1CO1 [ethylene oxide]
- ethylene oxide levels sufficient to kill biological surrogates (Bacillus atrophaeus) included with each load (microbial decontamination barrel, each load): sufficient to kill 10^6 biological surrogates
- sterilization of Bacillus atrophaeus spore strips contained in the Steritest (seven 2-4 day cycles, 48.8 gallon barrel, 17.6 g EO ampoule, room temperature (around 20° C.), empty and paper loads): successfully sterilized
